Here are results for two compounds from patent US20210196714A1, “COMPOSITIONS AND METHODS FOR TREATING DISORDERS CHARACTERIZED WITH ABERRANT RAS/MAPK SIGNALING” (Duke University, priority 2018, published 2021).

Series [1] relates to kmt2d CRISPR mosaic mutants (F0). Kind of series: CE defects in kmt2d-CRISPR F0 mutants. It counts as in vivo, zebrafish. The note with it: kmt2d-CRISPR F0, 100 nM; listed as dmDf. The source says:
Prior and current genetic zebrafish models of KS focused on the newly discovered rap1a/rap1b genes. However, from the perspective of clinical utility, dmDf should be efficacious in kmt2d mutants, since loss of function mutations of the human ortholog account for as much as 75% of KS (see, Ng, S. B. et al. Nat Genet 42, 790-3 (2010); Li, Y. et al. Hum Genet 130, 715-24 (2011); Lu, J., Mo, G., Ling, Y. & Ji, L. Mol Med Rep 14, 3641-5 (2016); Miyake, N. et al. Am J Med Genet A 161a, 2234-43 (2013)). Therefore, experiments supplemented the testing tools by creating a kmt2d CRISPR/Cas9 mutant. A guide RNA targeting exon 4 of kmt2d induced efficient (˜99%) Cas9-mediated genome editing (FIG. 8). […]
For convergence and extension (CE) phenotyping, embryos were scored as described (see, Leitch, C. C. et al. Nat Genet 40, 443-8 (2008)) at the 8-10 somite stage, and images were captured using an AZ100 microscope and NIS Elements software (Nikon). […] The distance between Meckel's (MK) and ceratohyal (CH) cartilages was measured on ventral bright field images with Image J (NIH). […] Fluorescence signal on embryo heads was imaged with the Nikon AZ100 microscope and DS-Qi1MC digital camera using […] Z-stacks to generate extended depth of focus images. Cell numbers were quantified using the ImageJ ICTN plugin (NIH). […]

Series [2] can be described thus: Solubility test in egg water. It counts as physicochemical. To be noted: DMSO stock diluted in water (100×). On the procedure: To guard against possible bias, the tool and negative control compounds were interspersed across the experiment and the zebrafish phenotyping team was blinded to the identity of each compound. Typical of small molecule storage, each of the 29 compounds was dissolved in dimethyl sulfoxide (DMSO). Therefore, such compounds were first diluted in water (100×) and its solubility tested in egg water; three compounds were insoluble and were thus removed from further testing (see, FIG. 1A). Next, each compound was diluted serially with egg water and toxicity tested by assaying the percentage of abnormal or dead embryos across three different concentrations (10 μM, 1 μM, 100 nM; FIG. 1B).

For a further series, the target named is ERK2 (Homo sapiens, UniProt P28482). To be noted: see WO 2002064586; cited from earlier work.

SMILES strings stand for the structures. Entries after “also recorded” stand apart in the source; their conditions may differ.

Sequence of ERK2 (P28482 whole entry, species assumed): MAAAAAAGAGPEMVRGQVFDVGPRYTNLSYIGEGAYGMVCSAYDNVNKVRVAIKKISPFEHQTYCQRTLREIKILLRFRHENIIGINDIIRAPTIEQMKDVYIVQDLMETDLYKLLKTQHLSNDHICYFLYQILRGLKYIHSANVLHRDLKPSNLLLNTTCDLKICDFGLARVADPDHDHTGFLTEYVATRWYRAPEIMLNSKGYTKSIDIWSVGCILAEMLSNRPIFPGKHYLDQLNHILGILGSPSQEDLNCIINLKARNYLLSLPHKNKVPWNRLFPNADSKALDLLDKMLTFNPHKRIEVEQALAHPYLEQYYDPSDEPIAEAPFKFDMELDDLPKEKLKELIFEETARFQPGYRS

Turning to `CC(C)c1nc(-c2cccc(NS(=O)(=O)c3c(F)cccc3F)c2F)c(-c2ccnc(N)n2)s1` [Compound 8, desmethyl-Dabrafenib], in series [1], the CE defects result is listed as “ameliorates the CE defects; also recorded: ameliorated significantly”. The “solubility tested in egg water” value in series [2] is on record as “soluble”.

With `CC[C@@H](CO)Nc1ncc(C)c(-c2c[nH]c(C(=O)N[C@H](CO)c3cccc(Cl)c3)c2)n1` [Compound 2, N-((S)-1-(3-chlorophenyl)-2-hydroxyethyl)-4-(2-(((S)-1-hydroxybutan-2-yl)amino)-5-methylpyrimidin-4-yl)-1H-pyrrole-2-carboxamide], the ERK2 inhibitor potency result on ERK2 is given as “potent”.
